# Legend:
# TNF-α = experiment: Inhibition of TNF-α induced by LPS in mice (DAYNES technique), serum ELISA; format: in vivo
# Method: This anti-inflammatory activity was complemented by a study of the immunosuppressive activity of PIV against Tumor Necrosis Factor-α.
# Inhibition of the activity of TNF-α by the Peptide PIV
# The DAYNES techniques described in Example 8 are used.
# 40 μg of PIV in 0.2 ml of physiological saline--that is to say 200 μg/ml
# 25 μg of PIV in 0.2 ml of physiological saline--that is to say 125 μg/ml
# 10 μg of PIV in 0.2 ml of physiological saline--that is to say 50 μg/ml
# It was carried out on mice separated into 5 batches of 5 animals
# The animals in the control batches receive an injection of 0.2 ml of physiological saline intravenously. The animals in the PIV batches receive an injection of the product at various dosages intravenously. (Caudal vein)
# Immediately after the treatment of the mice, a sublethal dose of LPS (1.2 mg in 0.2 ml of physiological saline) is intraperitoneally injected into each animal in the batches and positive control.
# Ninety minutes later, all the mice are punctured through the retroorbital sinuses on dry tubes. As soon as the blood coagulates, the clot is detached. The blood is centrifuged for 10 minutes at 10° C. at 1800 g.
# The sera once collected are frozen at -25° C.
# The TNF-α contained in these sera is assayed 24 hours after the sampling with the murine TNF-α ELISA assay Kit (ref. 1509-00 GENZYME)
# Rapid description of the Kit: the method used for this assay is of the sandwich type.
# A first anti-murine TNF-A monoclonal antibody is used.
# The samples are then deposited and then a second anti-TNF-α goat antibody is caused to react.
# The colored reaction uses o-phenylenediamine (OPD).
# The reading is made at 492 nm with a plate reader (TITERTEK MKII MCC 340)
# [1] = tested on: DNFB contact hypersensitivity; experiment: Dinitrofluorobenzene (DNFB) contact hypersensitivity test, ear thickening after topical application; format: in vivo, C57 BL/6JICO mice; details: for % suppression relative to the control batch, LEFT EAR / % suppression relative to the control batch, RIGHT EAR / MEAN VALUES LEFT EAR % INCREASE / MEAN VALUES RIGHT EAR % INCREASE: 5 days
# Source text: Study of the Anti-allergic activity of the Peptide compounds, by the Dinitrofluorobenzene (DNFB) contact Hypersensitivity test.
# Female C57 BL/6JICO mice 5 weeks old are separated into ten batches of ten animals (five per cage), with free access to water and food, subjected to a photoperiod of twelve hours of light per twenty-four hours.
# The animals in batches 1 to 6 receive daily and per topical application on the shaved skin of the back, the products to be studied, dissolved in propylene glycol, in a constant volume of 50 μl and for five consecutive days.
# PIII--Batches 1 - 2 - 3--2.5 μg --0.5 μg--0.1 μg--mouse/day
# PIV--Batches 4 - 5 - 6 - 2.5μg--0.5 μg--0.1 μg--mouse/day
# The animals of the X batch serve as controls (and receive only, 50 μl of propylene glycol per topical application for five days).
# (§1) On the fifth day, thirty minutes after the last application, all the mice are sensitized with 25 μl of DNFB (2.4-Dinitro-1-FluoroBenzene (FLUKA CHEMIKA PURUM at 97% batch No. 33820890) at 2% in a 4 to 1 mixture of acetone (SDS ref. 0510) and triolein (FLUKA) applied topically over the dorsal region of shaved skin.
# On the sixth day, a new sensitization is carried out by application of DNFB.
# On the eleventh day, the thickness of the ears of the mice is measured with the aid of a micrometer (ROCH 0 to 25 mm in 1/100 mm) in order to obtain base values, then the ears are stimulated by topical application of 20 μl of DNFB at 0.8%.
# (§2) On the twelfth day, the thickness of the ears is again measured. The mean value of thickening of the ears is established for the mice in the batches which had received the products to be studied, as well as for the mice in the control batch.
# The percentage of suppression where appropriate will be expressed by the following calculation: [formula]
# Comparative study of the activity of Lipoyl-Peptides and of their peptide structures on DNFB contact hypersensitivity.
# The method used is that described above in Example 10.
# Contact hypersensitivity induced in mice by Dinitrofluorobenzene--"DNBF"
# Batch I: (DL) - Lip - Glu - His - D.homoPhe - Arg - Trp - Gly - NH2
# Batch II: H - Glu - His - D.homoPhe - Arg - Trp - Gly - NH2
# Batch III: Control=(DL) - Lipoic Acid
# Solvent: propylene Glycol previously used as control in Example 10.
# Control: dose used"DL-Lipoic-Acid"=10 ng per mouse and per day.
# as §1, with “were” for “are”, “05510)” for “0510)”
# as §2, with “batch. The percentage of suppression where appropriate will be expressed by the following calculation: [formula]” for “batch.”
# [2] = Protection of treated animals given a lethal dose of LPS; format: in vivo, mice
# cultured embryonic cells = experiment: Effects of Peptides PI and PIV on cultured embryonic cells in vitro (melanocytes, neurons, muscular cells, fibroblasts); format: cell-based
# Method: Effects of Peptides PI and PIV on cultured embryonic cells in vitro . . . "Melanocytes - Neurons - Muscular Cells and Fibroblasts . . . " dose used 1 μg/ml (defined by dose/response trials)
# 1 single treatment during the innoculation of the cells or several successive treatments (renewal of the medium every 48 hours) duration of culture: 6 to 8 days
# 1) Counting of the melanocytes
# 2) Assay of melanin by HPLC and/or by spectrophotometry
# Daily observation of the cultures
# Ultrastructure by transmission electron microscopy.
substance,measurement,setting,value
[(DL) Lip] His - D.homoPhe - Arg - Trp - NH2 [PIV],mean decreases in TNF-α,"TNF-α; 50 μg/ml, five studies",37%
same,mean decreases in TNF-α,"TNF-α; 125 μg/ml, five studies",40%
same,mean decreases in TNF-α,"TNF-α; 200 μg/ml, five studies",46%
same,mean decreases in TNF-α,"TNF-α; all dosages, all the five studies",~40%
same,immunosuppressive activity against Tumor Necrosis Factor-α,TNF-α; complementary study reported in Example 8,-40%
same,"% suppression relative to the control batch, LEFT EAR",[1]; 0.1 μg/mouse/day topical,-65.46%
same,"% suppression relative to the control batch, RIGHT EAR",[1]; 0.1 μg/mouse/day topical,-65.46%
same,MEAN VALUES LEFT EAR % INCREASE,[1]; 0.1 μg/mouse/day topical,20.35%
same,MEAN VALUES RIGHT EAR % INCREASE,[1]; 0.1 μg/mouse/day topical,20.35%
same,"% suppression relative to the control batch, LEFT EAR",[1]; 0.5 μg/mouse/day topical,-69.40%
same,"% suppression relative to the control batch, RIGHT EAR",[1]; 0.5 μg/mouse/day topical,-69.40%
same,MEAN VALUES LEFT EAR % INCREASE,[1]; 0.5 μg/mouse/day topical,18.03%
same,MEAN VALUES RIGHT EAR % INCREASE,[1]; 0.5 μg/mouse/day topical,18.03%
same,"% suppression relative to the control batch, LEFT EAR",[1]; 2.5 μg/mouse/day topical,-69.47%
same,"% suppression relative to the control batch, RIGHT EAR",[1]; 2.5 μg/mouse/day topical,-69.47%
same,MEAN VALUES LEFT EAR % INCREASE,[1]; 2.5 μg/mouse/day topical,17.99%
same,MEAN VALUES RIGHT EAR % INCREASE,[1]; 2.5 μg/mouse/day topical,17.99%
same,suppression of the cutaneous hypersensitivity reaction induced by DiNitroFluoroBenzene,"[1]; overall, Example 10 (2.5, 0.5, 0.1 μg/mouse/day)",68.11%
same,Protection of treated animals (mortality),[2],highly significant retarded mortality rate
same,effect on precursor embryonic cells not yet determined in the melanoblastic pathway (in words),cultured embryonic cells; 1 μg/ml,no effect
same,effect on the melanoblasts already induced (in words),cultured embryonic cells; 1 μg/ml,stimulating effect
same,number of melanocytes increases by a factor,cultured embryonic cells; 1 μg/ml,≥ 2
same,toxic effect on astroglial cells (in words),cultured embryonic cells; 1 μg/ml,No toxic effect
same,"toxic effect on fibroblasts, mesenchyme (in words)",cultured embryonic cells; 1 μg/ml,no toxic effect
same,quantity of biosynthesized melanin per cell,"cultured embryonic cells; 1 μg/ml, after eight days of culture",1.4 ng/cell
same,toxic effect on myoblasts (in words),"cultured embryonic cells; 1 μg/ml, even at an ultrastructural level",no toxic effect
same,"effect on melanogenesis, summary (in words)",cultured embryonic cells; qualitative and quantitative,stimulate melanogenesis
same,cytotoxic effect on the various cell categories (in words),cultured embryonic cells; summary,no cytotoxic effect
same,"stimulating effect on the other cell types: neurons, astrocytes, muscle cells, fibroblasts (in words)",cultured embryonic cells; summary,without stimulating effect
